{"source": "patent US20060100258A1", "about": "“Growth promotion method” (priority 2003, published 2006)", "assay_type_in_all_cases": "in vivo", "key": {"chicks": {"system": "chicks", "assay": "Effect on chick growth: weight gain after a single treatment", "description": "FIG. 2 is a graph showing the average percentage weight increase in chicks after single dosing with Iksin at 12 μg/g in DMSO, 100 μg/g in DMSO, 200 μg/g in distilled water/Tween20 and 400 μg/g in distilled water/tween20 compared to untreated chicks.\n(§1) Day-old chicks were orally administered Iksin in DMSO at 100 μg/g, 125 μg/g, 150 μg/g and 200 μg/g body weight and in Distilled Water (DW)/5% Tween-20 at 100 μg/g, 200 μg/g, 400 μg/g and 500 μg/g body weight.\nTreatment with Iksin 12 μg/g DMSO, 200 and 400 μg/g DW/T20 gave a mean weight gain of 17%."}, "[1]": {"assay": "Plasma/blood levels of Iksin in chicks after a single oral dose", "conditions": "for peak levels (blood/plasma): observed at 48 h (FIG. 1)", "description": "FIG. 1 is a graph showing plasma levels of Iksin in chicks after treatment with Iksin at 100 μg/g in DMSO and at 400 μg/g in distilled water/Tween20; and\nas §1"}, "day-old broiler chicks": {"system": "day-old broiler chicks", "assay": "Determination of dose range: maximum tolerated oral dose in day-old broiler chicks", "description": "as §1\nThe maximum tolerated oral dose of Iksin for day-old broiler chicks was 200 μg/g Iksin/DMSO and ≧500 μg/g in DW/T20."}}, "data": [{"smiles": "C/C(=C\\c1ccc2c(c1)OCO2)[N+](=O)[O-]", "note": "[Iksin, 3,4-methylenedioxy-β-methyl-β-nitrostyrene]", "values": [{"measurement": "weight gain in chicks", "setting": "chicks; all doses and formulations, 4 days after a single treatment (FIG. 2)", "value": "increased weight gain"}, {"measurement": "mean weight gain", "setting": "chicks; chicks, Iksin 12 μg/g DMSO, 200 and 400 μg/g DW/T20 (mean of these groups), 4 days after a single treatment", "value": 17, "unit": "%"}, {"measurement": "increase in weight gain over the group of control chicks", "setting": "chicks; chicks, Iksin 100 μg/g DMSO, 4 days after a single treatment", "value": 32, "unit": "%"}, {"measurement": "Iksin blood levels", "setting": "[1]; single oral dose 12 μg/g DMSO", "value": "below the limits of detection"}, {"measurement": "peak levels (blood/plasma)", "setting": "[1]; single oral dose 100 μg/g DMSO", "value": 850, "unit": "µg/g"}, {"measurement": "Iksin blood levels", "setting": "[1]; single oral dose 200 μg/g DW", "value": "below the limits of detection"}, {"measurement": "peak levels (blood/plasma)", "setting": "[1]; single oral dose 400 μg/g DW", "value": 850, "unit": "µg/g"}, {"measurement": "absorption from a single oral dosing", "setting": "[1]; single oral dosing", "value": "Very little Iksin was absorbed"}, {"measurement": "maximum tolerated oral dose", "setting": "day-old broiler chicks; Iksin in DMSO", "value": 200, "unit": "µg/g"}, {"measurement": "maximum tolerated oral dose", "setting": "day-old broiler chicks; Iksin in DW/T20 (distilled water/5% Tween-20)", "value": "≥ 500", "unit": "µg/g"}]}]}
